Data set [1] relates to subject diagnosed with Parkinson's disease. The data set is described as follows: Case of a Parkinson's subject given Olivenol Plus capsules (Example 1). The class given is in vivo, human. The note with it: orally administered L-dopa for over three months before the polyphenol treatment, one subject. On the procedure:
The subject was given an olive polyphenol composition orally, in the form of two Olivenol Plus® capsules administered three times per day. As each capsule contains 12 mg olive polyphenols, including about 5 mg hydroxytyrosol, the daily dose given to the subject was 72 mg olive polyphenols, including 30 mg hydroxytyrosol.

The test system of data set [2] is endothelial cell. The data set is described as follows: Endothelial cell based assay (pro-/anti-oxidant effect). The text has this: Without wishing to be bound by theory, it may be postulated that the removal of hydroxytyrosol from its original matrix and natural environment can result in adverse effects, and that at least some of the naturally occurring associated polyphenols are necessary to include in a therapeutic hydroxytyrosol formulation.

Data set [3] relates to iNOS production. The experiment in a line: Western blot on the mesencephalic region: iNOS. More on the design: species or system male adult CD1 mice. The procedure:
(§1) In vitro testing was then carried out on the mesencephalic region, with respect to iNOS production, IkB-α, NF-κB, Bax, and Bcl2. Western blot analyses and corresponding bar graphs are presented in FIG. 5 (iNOS production, optical density normalized to β-actin), FIG. 6 (IkB-α, also normalized to β-actin), FIG. 7 (NF-κB, optical density normalized to lamin A/C), FIG. 8 (Bax, normalized to β-actin), and FIG. 9 (Bcl2, normalized to β-actin). In each case, the effect of hydroxytyrosol is marked.
(In western blotting, separated proteins are transferred to a membrane and probed.)

For data set [4], the system named is IkB-α. The data set is described as follows: Western blot on the mesencephalic region: IkB-α. Also noted: species or system male adult CD1 mice. The procedure: as §1
Data set [5] has as its system cells from the mesencephalic region. The data set is described as follows: Histology of cells from the mesencephalic region, rotenone mouse model. The settings on record: hydroxytyrosol-treated relative to rotenone-only ("vehicle") group. In kind it is in vivo, male adult CD1 mice.
Data set [6] deals with rotenone-induced PD state. The data set is described as follows: Pole test (body coordination and balance) in rotenone mouse model of PD. In kind it is in vivo, male adult CD1 mice. The settings on record: hydroxytyrosol 10 mg/kg/day plus rotenone 5 mg/kg/day i.p., 28 days, relative to rotenone only.
Data set [7] has as its system Bax. The data set is described as follows: Western blot on the mesencephalic region: Bax. More on the design: species or system male adult CD1 mice. On the procedure: as §1
Data set [8] deals with Bcl2. The experiment in a line: Western blot on the mesencephalic region: Bcl2. Also noted: species or system male adult CD1 mice. The procedure: as §1
Data set [9] concerns NF-κB. The data set is described as follows: Western blot on the mesencephalic region: NF-κB. Also noted: species or system male adult CD1 mice. On the procedure: as §1
The conditions of data set [10]: even at high concentrations; Auñon-Calles et al. (2013); cited from earlier work.

`N[C@@H](Cc1ccc(O)c(O)c1)C(=O)O` [L-dopa]: the improvement after treatment result in data set [1] was “no noticeable improvement”.

As for `OCCc1ccc(O)c(O)c1` [hydroxytyrosol, 4-(hydroxyethyl)-1,2-benzene diol], the “pro-oxidant / anti-oxidant effect” value in [2] is given as “pro-oxidant effect”. Besides, in data set [3], the “iNOS production, optical density normalized to β-actin, FIG. 5” value is “marked”. The “IkB-α, normalized to β-actin, FIG. 6” value in data set [4] is on record as “marked”. Moreover, in [5], the “histologic injury score, FIG. 4” value was “significantly reduces”. In [6], the “pole test time to turn (orientation time), FIG. 1B” value is on record as “significantly lowers”; the “pole test total time (orientation and complete descent), FIG. 1A” value is given as “significantly lowers”. Also, in data set [7], the “Bax, normalized to β-actin, FIG. 8” value is recorded as “marked”. Also, the “Bcl2, normalized to β-actin, FIG. 9” value in data set [8] is “marked”. Also, in [9], the “NF-κB, optical density normalized to lamin A/C, FIG. 7” value was “marked”. Also, the toxicity entry in data set [10] was “no toxicity has been detected”.

Source of the values: patent publication US20170367995A1, “TREATMENT OF EARLY STAGE PARKINSON'S DISEASE WITH A HYDROXYTYROSOL-CONTAINING POLYPHENOL FORMULATION” (Allevium Therapeutics, Inc., priority 2016, published 2017).
